Measured values: ChEMBL document CHEMBL5608184, “Discovery and mechanistic insights into thieno[3,2-d]pyrimidine and heterocyclic fused pyrimidines inhibitors targeting tubulin for cancer therapy” (Eur J Med Chem, 2024)

Assays:
[1] = system: SK-OV-3; experiment: Induction of apoptosis in human SK-OV-3 cells assessed as early apoptotic cells at 0.625 nM incubated for 48 hrs by Annexin V-APC-A/7-AAD-A staining based flow cytometry (reference value: 1.10 %); format: functional
[2] = system: SK-OV-3; experiment: Induction of apoptosis in human SK-OV-3 cells assessed as early apoptotic cells at 2.5 nM incubated for 48 hrs by Annexin V-APC-A/7-AAD-A staining based flow cytometry (reference value: 1.10 %); format: functional
[3] = system: SK-OV-3; experiment: Induction of apoptosis in human SK-OV-3 cells assessed as early apoptotic cells at 1.25 nM incubated for 48 hrs by Annexin V-APC-A/7-AAD-A staining based flow cytometry (reference value: 1.10 %); format: functional
[4] = system: SK-OV-3; experiment: Induction of apoptosis in human SK-OV-3 cells assessed as viable cells at 2.5 nM incubated for 48 hrs by Annexin V-APC-A/7-AAD-A staining based flow cytometry (reference value: 97.50 %); format: functional; conditions: read-out: Activity
[5] = system: SK-OV-3; experiment: Induction of apoptosis in human SK-OV-3 cells assessed as necrotic cells at 1.25 nM incubated for 48 hrs by Annexin V-APC-A/7-AAD-A staining based flow cytometry (reference value: 0.21 %); format: functional
[6] = system: SK-OV-3; experiment: Induction of cell cycle arrest at G2/M phase in human SK-OV-3 cells at 5 nM incubated for 24 hrs by PI staining based flow cytometry (reference value: 30.13 %); format: functional
[7] = system: SK-OV-3; experiment: Inhibition of cell migration in human SK-OV-3 cells assessed as relative wound density at 0.625 nM incubated for 24 hrs by wound healing assay (reference value: 61.61 %); format: functional; design: scale not given: the % may be the effect or the level left
[8] = system: SK-OV-3; experiment: Inhibition of cell migration in human SK-OV-3 cells assessed as relative wound density at 1.25 nM incubated for 24 hrs by wound healing assay (reference value: 61.61 %); format: functional; design: scale not given: the % may be the effect or the level left
[9] = system: SK-OV-3; experiment: Inhibition of cell migration in human SK-OV-3 cells assessed as relative wound density at 2.5 nM incubated for 24 hrs by wound healing assay (reference value: 61.61 %); format: functional; design: scale not given: the % may be the effect or the level left
[10] = system: SK-OV-3; experiment: Induction of apoptosis in human SK-OV-3 cells assessed as late apoptotic cells at 2.5 nM incubated for 48 hrs by Annexin V-APC-A/7-AAD-A staining based flow cytometry (reference value: 1.20 %); format: functional
[11] = system: SK-OV-3; experiment: Induction of apoptosis in human SK-OV-3 cells assessed as necrotic cells at 5 nM incubated for 48 hrs by Annexin V-APC-A/7-AAD-A staining based flow cytometry (reference value: 0.21 %); format: functional
[12] = system: SK-OV-3; experiment: Induction of apoptosis in human SK-OV-3 cells assessed as viable cells at 0.625 nM incubated for 48 hrs by Annexin V-APC-A/7-AAD-A staining based flow cytometry (reference value: 97.50 %); format: functional; conditions: read-out: Activity
[13] = system: SK-OV-3; experiment: Induction of apoptosis in human SK-OV-3 cells assessed as viable cells at 5 nM incubated for 48 hrs by Annexin V-APC-A/7-AAD-A staining based flow cytometry (reference value: 97.50 %); format: functional; conditions: read-out: Activity
[14] = system: SK-OV-3; experiment: Induction of apoptosis in human SK-OV-3 cells assessed as late apoptotic cells at 5 nM incubated for 48 hrs by Annexin V-APC-A/7-AAD-A staining based flow cytometry (reference value: 1.20 %); format: functional
[15] = system: SK-OV-3; experiment: Induction of apoptosis in human SK-OV-3 cells assessed as necrotic cells at 0.625 nM incubated for 48 hrs by Annexin V-APC-A/7-AAD-A staining based flow cytometry (reference value: 0.48 %); format: functional
[16] = system: SK-OV-3; experiment: Inhibition of cell migration in human SK-OV-3 cells assessed as relative wound density at 0.625 nM incubated for 24 hrs by wound healing assay (reference value: 74.53 %); format: functional; design: scale not given: the % may be the effect or the level left
[17] = system: SK-OV-3; experiment: Inhibition of cell migration in human SK-OV-3 cells assessed as relative wound density at 2.5 nM incubated for 24 hrs by wound healing assay (reference value: 74.53 %); format: functional; design: scale not given: the % may be the effect or the level left
[18] = system: SK-OV-3; experiment: Induction of apoptosis in human SK-OV-3 cells assessed as early apoptotic cells at 5 nM incubated for 48 hrs by Annexin V-APC-A/7-AAD-A staining based flow cytometry (reference value: 1.12 %); format: functional
[19] = system: SK-OV-3; experiment: Induction of apoptosis in human SK-OV-3 cells assessed as necrotic cells at 2.5 nM incubated for 48 hrs by Annexin V-APC-A/7-AAD-A staining based flow cytometry (reference value: 0.48 %); format: functional
[20] = molecular target: Tubulin; experiment: Binding affinity to CM5-chip immobilized tubulin (unknown origin) assessed as dissociation constant by SPR analysis; format: protein-complex assay, Homo sapiens
[21] = system: SK-OV-3; experiment: Inhibition of cell migration in human SK-OV-3 cells assessed as relative wound density at 1.25 nM incubated for 24 hrs by wound healing assay (reference value: 74.53 %); format: functional; design: scale not given: the % may be the effect or the level left
[22] = system: SK-OV-3; experiment: Induction of cell cycle arrest at G2/M phase in human SK-OV-3 cells at 0.625 nM incubated for 24 hrs by PI staining based flow cytometry (reference value: 29.73 %); format: functional
[23] = system: SK-OV-3; experiment: Induction of apoptosis in human SK-OV-3 cells assessed as viable cells at 1.25 nM incubated for 48 hrs by Annexin V-APC-A/7-AAD-A staining based flow cytometry (reference value: 97.17 %); format: functional; conditions: read-out: Activity
[24] = system: SK-OV-3; experiment: Induction of apoptosis in human SK-OV-3 cells assessed as necrotic cells at 5 nM incubated for 48 hrs by Annexin V-APC-A/7-AAD-A staining based flow cytometry (reference value: 0.48 %); format: functional
[25] = system: SK-OV-3; experiment: Induction of apoptosis in human SK-OV-3 cells assessed as necrotic cells at 1.25 nM incubated for 48 hrs by Annexin V-APC-A/7-AAD-A staining based flow cytometry (reference value: 0.48 %); format: functional
[26] = system: SK-OV-3; experiment: Induction of apoptosis in human SK-OV-3 cells assessed as viable cells at 5 nM incubated for 48 hrs by Annexin V-APC-A/7-AAD-A staining based flow cytometry (reference value: 97.17 %); format: functional; conditions: read-out: Activity
[27] = system: SK-OV-3; experiment: Induction of cell cycle arrest at G2/M phase in human SK-OV-3 cells at 5 nM incubated for 24 hrs by PI staining based flow cytometry (reference value: 29.73 %); format: functional
[28] = system: SK-OV-3; experiment: Induction of apoptosis in human SK-OV-3 cells assessed as late apoptotic cells at 5 nM incubated for 48 hrs by Annexin V-APC-A/7-AAD-A staining based flow cytometry (reference value: 1.22 %); format: functional
[29] = system: SK-OV-3; experiment: Induction of apoptosis in human SK-OV-3 cells assessed as late apoptotic cells at 0.625 nM incubated for 48 hrs by Annexin V-APC-A/7-AAD-A staining based flow cytometry (reference value: 1.22 %); format: functional
[30] = system: SK-OV-3; experiment: Inhibition of cell migration in human SK-OV-3 cells assessed as relative wound density at 5 nM incubated for 24 hrs by wound healing assay (reference value: 74.53 %); format: functional; design: scale not given: the % may be the effect or the level left
[31] = system: SK-OV-3; experiment: Induction of cell cycle arrest at G2/M phase in human SK-OV-3 cells at 1.25 nM incubated for 24 hrs by PI staining based flow cytometry (reference value: 29.73 %); format: functional
[32] = system: SK-OV-3; experiment: Induction of cell cycle arrest at G2/M phase in human SK-OV-3 cells at 2.5 nM incubated for 24 hrs by PI staining based flow cytometry (reference value: 29.73 %); format: functional

`COc1ccc(N(C)c2nc(Cl)nc3ccn(C)c23)cc1` was tested, and the Activity [1] was 1.53%, the Activity [2] was 20.62% and the Activity [3] was 2.83%. The viability at 0.0025 µM [4] was 75.9%, the Activity [5] was 0.56% and the Activity [6] was 87.47%. The Activity [7] was 58.03%, the Activity [8] was 54.94% and the Activity [9] was 6.33%. It also gave an Activity [10] of 2.27%, an Activity [11] of 2.25% and a viability at 0.000625 µM [12] of 96.2%. It also gave a viability at 0.005 µM [13] of 54% and an Activity [14] of 3.86%.
`COc1ccc2c(c1)NC(=O)CN2c1nc(Cl)nc2ccsc12` showed an Activity [15] of 0.91%, an Activity [16] of 67.94% and an Activity [17] of 9.35%. It also gave an Activity [18] of 31.24%, an Activity [19] of 2.32% and a Kd [20] of 24.4 µM. It also gave an Activity [21] of 33.15%, an Activity [22] of 41.72% and a viability at 0.00125 µM [23] of 54.3%. The Activity [24] was 2.06%, the Activity [25] was 2.6% and the viability at 0.005 µM [26] was 62.1%. The Activity [27] was 88.67%, the Activity [28] was 4.63% and the Activity [29] was 2.48%. The Activity [30] was 7.98%, the Activity [31] was 85.13% and the Activity [32] was 88.2%.
